From patent publication US6710168B1, “Glycopeptide antibiotics, combinatorial libraries of glycopeptide antibiotics and methods of producing same” (The Trustees of the University of Princeton, priority 1999, dated 2004)
≈ marks a conversion by molar mass, not a printed value.

Columns and labels:
Assay type in all cases: cell-based
[1] = test system: Enterococcus faecalis CL5244, VanB; experiment: MIC susceptibility test; settings: for MIC CL5244: Enterococcus faecalis CL5244, VanB
Method: (§1) Evaluation of vancomycin analogs is performed using in vitro susceptibility tests and a time-kill assay. [NCCL Standard, 1993] In susceptibility tests, five strains of bacteria, two of the most important: Staphylococcus aureus and Enterococcus faecalis (both susceptible and resistant strains), and Bacillus cereus are chosen and bacteria viability remaining in each well is evaluated using a colorimetric assay based on the tetrazolium salt 3-(4,5-dimethyl-2-thiazolyl)-2,5-diphenyl-2H tetrazolium bromide (MTT) and minimum inhibitory concentration (MIC) values are determined as μg/mL. [Mosmann, T. (1983); Damour, O., et al. (1992); Mikami, Y., et al. (1994)] This assay gives susceptibility information quickly, efficiently, and clearly.
(§2) MICs are determined by the microdilution method using 96-well microplates. Samples are suspended with Cation Adjusted (20 to 25 mg of Ca^2+/mL and 10 to […] of Mg^2+) Mueller-Hinton broth (Difco Laboratories, Detroit, Mich.) and are two-fold diluted from 5 μg/mL to […] on microplates (12 step dilution). To each well, which contained 100 μL of cell suspension (10^6 CFU/mL), 100 μL of antibiotic solution is added and the plates are incubated at 37° C. for 24 h. 50 μL of MTT solution (1 mg/mL) is added to each well, then the plates are incubated under the same conditions (incubation time; 30 min for Bacillus cereus, Staphylococcus aureus, and Methicillin resistant Staphylococcus aureus; 2 hours for Enterococcus faecalis and Gentamicin, Streptmycin, Vancomycin Enterococcus faecalis). MTT is a yellow tetrazolium salt that is reduced by mitochondrial enzymes in viable cells to an insoluble blue formazan product. MIC values are evaluated by observing the lowest drug concentration to inhibit bacteria growth.

[2] = test system: Enterococcus faecalis (ATCC 29212); experiment: MIC susceptibility test, microdilution with MTT readout; settings: for MIC EF: Enterococcus faecalis ATCC29212
Method: as §1
(§3) All strains [Bacillus cereus (ATCC® 11778), Staphylococcus aureus (ATCC® 29213), Methicillin resistant Staphylococcus aureus (ATCC® 33591), Enterococcus faecalis (ATCC® 29212), and gentamicin, streptmycin, vancomycin resistant Enterococcus faecalis (ATCC® 51299), are purchased from REMEL (Lenexa, Kans.).
as §2

[3] = test system: Methicillin resistant Staphylococcus aureus (ATCC 33591); experiment: as above; settings: for MIC MRSA: Staphylococcus aureus ATCC3359, Methicillin resistance
Method: as §1, §3, §2

[4] = test system: Bacillus cereus (ATCC 11778); experiment: as above; settings: for MIC BC: Bacillus ceres ATCC11778
Method: as §1, §3, §2

[5] = test system: Staphylococcus aureus (ATCC 29213); experiment: as above; settings: for MIC SA: Staphylococcus aureus ATCC29213
Method: as §1, §3, §2

[6] = test system: gentamicin, streptmycin, vancomycin resistant Enterococcus faecalis (ATCC 51299); experiment: microbe, parasite or virus in culture; settings: for MIC VREF: Enterococcus faecalis ATCC51299, vancomycin resistance
Method: as §1, §3, §2

[7] = test system: Enterococcus faecium CL5137, VanA; experiment: MIC susceptibility test; settings: for MIC CL5137: Enterococcus faecium CL5137, VanA

CNC(CC(C)C)C(=O)NC1C(=O)NC(CC(N)=O)C(=O)NC2C(=O)NC3C(=O)NC(C(=O)NC(C(=O)O)c4cc(O)cc(O)c4-c4cc3ccc4O)C(O)c3ccc(c(Cl)c3)Oc3cc2cc(c3OC2OC(CN=P(c3ccccc3)(c3ccccc3)c3ccccc3)C(O)C(O)C2OC2CC(C)(NCc3ccc(-c4ccc(Cl)cc4)cc3)C(O)C(C)O2)Oc2ccc(cc2Cl)C1O.O=C(O)C(F)(F)F (stereo not shown) [CXXXVI, N-4-(4-Chlorophenyl)benzyl Vancosamine-glucose-C6-iminotriphenylphosphorane Vancomycin]
MIC CL5244 [1]: 0.32 µg/mL
MIC EF [2]: 0.32 µg/mL
MIC MRSA [3]: 0.32 µg/mL
MIC BC [4]: 1.3 µg/mL
MIC SA [5]: 1.3 µg/mL
MIC VREF [6]: 0.16 µg/mL
MIC CL5137 [7]: 5.0 µg/mL

CN[C@H](CC(C)C)C(=O)N[C@H]1C(=O)N[C@@H](CC(N)=O)C(=O)N[C@H]2C(=O)N[C@H]3C(=O)N[C@H](C(=O)N[C@H](C(=O)O)c4cc(O)cc(O)c4-c4cc3ccc4O)[C@H](O)c3ccc(c(Cl)c3)Oc3cc2cc(c3OC2OC(CO)C(O)C(O)C2OC2CC(C)(N)C(O)C(C)O2)Oc2ccc(cc2Cl)[C@H]1O (stereo partly shown) [I, vancomycin, reference compound]
MIC ([1]; Enterococcus faecalis, read-out: MIC CL5244): 25 µg/mL (≈ 17.3 µM)
MIC ([2]; Enterococcus faecalis, ATCC29212, read-out: MIC EF): 1.3 µg/mL (≈ 0.897 µM)
MIC ([3]; Staphylococcus aureus, ATCC 3359 / ATCC 33591 / MRSA, read-out: MIC MRSA): 1.3 µg/mL (≈ 0.897 µM)
MIC ([4]; Bacillus cereus, ATCC11778, read-out: MIC BC): 1 µg/mL (≈ 0.69 µM)
MIC ([5]; Staphylococcus aureus, ATCC29213, read-out: MIC SA): 1 µg/mL (≈ 0.69 µM)
MIC ([6]; Enterococcus faecalis, ATCC51299, read-out: MIC VREF): > 5 µg/mL
MIC ([7]; Enterococcus faecium, read-out: MIC CL5137): 1600 µg/mL (≈ 1100 µM)

CNC(CC(C)C)C(=O)NC1C(=O)NC(CC(N)=O)C(=O)NC2C(=O)NC3C(=O)NC(C(=O)NC(C(=O)O)c4cc(O)cc(O)c4-c4cc3ccc4O)C(O)c3ccc(c(Cl)c3)Oc3cc2cc(c3OC2OC(CNCc3ccc(-c4ccc(Cl)cc4)o3)C(O)C(O)C2OC2CC(C)(NCc3ccc(-c4ccc(Cl)cc4)cc3)C(O)C(C)O2)Oc2ccc(cc2Cl)C1O (stereo not shown) [L, Glucose-C6-N-5-(4-chlorophenyl)furan-1-methylene-vancosamine-N-4-(4-chlorophenyl)benzyl Vancomycin]
MIC CL5244 [1]: 0.8 µg/mL (≈ 0.435 µM)
MIC EF [2]: 1.3 µg/mL (≈ 0.707 µM)
MIC MRSA [3]: 2.5 µg/mL (≈ 1.36 µM)
MIC BC [4]: 3.8 µg/mL (≈ 2.07 µM)
MIC SA [5]: 5.0 µg/mL (≈ 2.72 µM)
MIC VREF [6]: 1.0 µg/mL (≈ 0.544 µM)
MIC CL5137 [7]: 6.3 µg/mL (≈ 3.42 µM)

CNC(CC(C)C)C(=O)NC1C(=O)NC(CC(N)=O)C(=O)NC2C(=O)NC3C(=O)NC(C(=O)NC(C(=O)O)c4cc(O)cc(O)c4-c4cc3ccc4O)C(O)c3ccc(c(Cl)c3)Oc3cc2cc(c3OC2OC(CSC(C)C)C(O)C(O)C2OC2CC(C)(N)C(O)C(C)O2)Oc2ccc(cc2Cl)C1O (stereo not shown) [LIII, Glucose-C6-thiopropianato Vancomycin]
MIC EF [2]: 2.5 µg/mL (≈ 1.66 µM)
MIC MRSA [3]: 2.5 µg/mL (≈ 1.66 µM)
MIC BC [4]: 1.3 µg/mL (≈ 0.862 µM)
MIC SA [5]: 2.5 µg/mL (≈ 1.66 µM)
MIC VREF [6]: 5.0< μg/mL

CNC(CC(C)C)C(=O)NC1C(=O)NC(CC(N)=O)C(=O)NC2C(=O)NC3C(=O)NC(C(=O)NC(C(=O)O)c4cc(O)cc(O)c4-c4cc3ccc4O)C(O)c3ccc(c(Cl)c3)Oc3cc2cc(c3OC2OC(CSCC(=O)O)C(O)C(O)C2OC2CC(C)(N)C(O)C(C)O2)Oc2ccc(cc2Cl)C1O (stereo not shown) [LXXI, Glucose-C6-thioacetato Vancomycin]
MIC EF [2]: 5.0< μg/mL
MIC MRSA [3]: 5.0< μg/mL
MIC BC [4]: 5.0< μg/mL
MIC SA [5]: 5.0 µg/mL (≈ 3.28 µM)
MIC VREF [6]: 5.0< μg/mL

CCCCCCCCCCNCC1OC(Oc2c3cc4cc2Oc2ccc(cc2Cl)C(O)C2NC(=O)C(NC(=O)C4NC(=O)C(CC(N)=O)NC(=O)C(NC(=O)C(CC(C)C)NC)C(O)c4ccc(c(Cl)c4)O3)c3ccc(O)c(c3)-c3c(O)cc(O)cc3C(C(=O)O)NC2=O)C(OC2CC(C)(N)C(O)C(C)O2)C(O)C1O (stereo not shown) [XXXI, Glucose-C6-N-decyl Vancomycin]
MIC EF [2]: 0.32 µg/mL (≈ 0.201 µM)
MIC MRSA [3]: 1.3 µg/mL (≈ 0.818 µM)
MIC BC [4]: 1.3 µg/mL (≈ 0.818 µM)
MIC SA [5]: 1.3 µg/mL (≈ 0.818 µM)
MIC VREF [6]: 2.5 µg/mL (≈ 1.57 µM)

CNC(=S)NCC1OC(Oc2c3cc4cc2Oc2ccc(cc2Cl)C(O)C2NC(=O)C(NC(=O)C4NC(=O)C(CC(N)=O)NC(=O)C(NC(=O)C(CC(C)C)NC)C(O)c4ccc(c(Cl)c4)O3)c3ccc(O)c(c3)-c3c(O)cc(O)cc3C(C(=O)O)NC2=O)C(OC2CC(C)(N)C(O)C(C)O2)C(O)C1O (stereo not shown) [XXXII, Glucose-C6-N-thiocarbonyl Methylamino Vancomycin]
MIC EF [2]: 1.3 µg/mL (≈ 0.854 µM)
MIC MRSA [3]: 2.5 µg/mL (≈ 1.64 µM)
MIC BC [4]: 1.9 µg/mL (≈ 1.25 µM)
MIC SA [5]: 1.9 µg/mL (≈ 1.25 µM)
MIC VREF [6]: 5.0 µg/mL (≈ 3.29 µM)

CNC(CC(C)C)C(=O)NC1C(=O)NC(CC(N)=O)C(=O)NC2C(=O)NC3C(=O)NC(C(=O)NC(C(=O)O)c4cc(O)cc(O)c4-c4cc3ccc4O)C(O)c3ccc(c(Cl)c3)Oc3cc2cc(c3OC2OC(CNC(=O)c3cccs3)C(O)C(O)C2OC2CC(C)(N)C(O)C(C)O2)Oc2ccc(cc2Cl)C1O (stereo not shown) [XXXIII, Glucose-C6-N-(thiophene-2-carboxamide) Vancomycin]
MIC EF [2]: 1.3 µg/mL (≈ 0.834 µM)
MIC MRSA [3]: 2.5 µg/mL (≈ 1.6 µM)
MIC BC [4]: 1.3 µg/mL (≈ 0.834 µM)
MIC SA [5]: 1.3 µg/mL (≈ 0.834 µM)
MIC VREF [6]: 5.0 µg/mL (≈ 3.21 µM)

CNC(CC(C)C)C(=O)NC1C(=O)NC(CC(N)=O)C(=O)NC2C(=O)NC3C(=O)NC(C(=O)NC(C(=O)O)c4cc(O)cc(O)c4-c4cc3ccc4O)C(O)c3ccc(c(Cl)c3)Oc3cc2cc(c3OC2OC(CNC(=O)CN)C(O)C(O)C2OC2CC(C)(N)C(O)C(C)O2)Oc2ccc(cc2Cl)C1O (stereo not shown) [XXXIV, Glucose-C6-N-(glycine-carboxamide) Vancomycin]
MIC EF [2]: 2.5 µg/mL (≈ 1.66 µM)
MIC MRSA [3]: 2.5 µg/mL (≈ 1.66 µM)
MIC BC [4]: 5.0 µg/mL (≈ 3.32 µM)
MIC SA [5]: 1.9 µg/mL (≈ 1.26 µM)
MIC VREF [6]: 5.0< μg/mL

CCCCCCCCCCCCCC(=O)NCC1OC(Oc2c3cc4cc2Oc2ccc(cc2Cl)C(O)C2NC(=O)C(NC(=O)C4NC(=O)C(CC(N)=O)NC(=O)C(NC(=O)C(CC(C)C)NC)C(O)c4ccc(c(Cl)c4)O3)c3ccc(O)c(c3)-c3c(O)cc(O)cc3C(C(=O)O)NC2=O)C(OC2CC(C)(N)C(O)C(C)O2)C(O)C1O (stereo not shown) [XXXV, Glucose-C6-N-myristoyl Vancomycin]
MIC EF [2]: 0.015 µg/mL (≈ 0.00904 µM)
MIC MRSA [3]: 1.3 µg/mL (≈ 0.784 µM)
MIC BC [4]: 3.8 µg/mL (≈ 2.29 µM)
MIC SA [5]: 2.5 µg/mL (≈ 1.51 µM)
MIC VREF [6]: 0.16 µg/mL (≈ 0.0965 µM)

CNC(CC(C)C)C(=O)NC1C(=O)NC(CC(N)=O)C(=O)NC2C(=O)NC3C(=O)NC(C(=O)NC(C(=O)O)c4cc(O)cc(O)c4-c4cc3ccc4O)C(O)c3ccc(c(Cl)c3)Oc3cc2cc(c3OC2OC(CNC(=O)c3ccccc3I)C(O)C(O)C2OC2CC(C)(N)C(O)C(C)O2)Oc2ccc(cc2Cl)C1O (stereo not shown) [XXXVI, Glucose-C6-N-2-iodobenzoyl Vancomycin]
MIC EF [2]: 1.3 µg/mL (≈ 0.775 µM)
MIC MRSA [3]: 2.5 µg/mL (≈ 1.49 µM)
MIC BC [4]: 1.3 µg/mL (≈ 0.775 µM)
MIC SA [5]: 1.3 µg/mL (≈ 0.775 µM)
MIC VREF [6]: 2.5 µg/mL (≈ 1.49 µM)
